The supplement of paper PMC10627819

What was measured:
S. aureus DSM 20231 [1] = assay: fitness (endpoint OD595 vs no drug) (fraction); higher = more growth
Procedure, shortened: (§1)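 At 37 °C, bacteria in TSB, LB Lennox or CY were grown in 384-well plates from a starting OD595 of 0.01. OD595 was measured every 30 min for 14 h, with the first reading used as background. Fitness is the optical density at the switch to stationary phase as a fraction of the robust mean of no-drug control wells, capped at 1.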

S. aureus Newman [2] = assay: as above
Procedure, shortened: as §1

S. pneumoniae D39V [3] = assay: as above
Procedure, shortened: as §1

B. subtilis 168 = assay: Bliss interaction score (quartile over a dose matrix) (fitness difference); higher = more antagonism (negative = synergy)
Procedure, shortened: (§2)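 Growth was read as OD595 when cultures entered stationary phase, and each value was divided by the plate's robust no-drug mean and capped at 1. This normalised ratio is the fitness value, and fitness for each single drug came from the combination data. The Bliss score subtracts the expected fitness, taken as the product, from the observed fitness and is given as quartiles across technical, biological and donor/recipient replicates.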

S. aureus DSM 20231 [4] = assay: as above
Procedure, shortened: as §2

S. aureus Newman [5] = assay: as above
Procedure, shortened: as §2

S. pneumoniae D39V [6] = assay: as above
Procedure, shortened: as §2
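Throughout, for Bliss interaction score (quartile over a dose matrix): first quartile when negative (synergy) and third quartile when positive (antagonism).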
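Throughout, for fitness (endpoint OD595 vs no drug): OD595 on entry to stationary phase over no-drug wells; at most 1.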

CC1(C)S[C@@H]2[C@H](NC(=O)[C@H](N)c3ccc(O)cc3)C(=O)N2[C@H]1C(=O)O [Amoxicillin] + C[n+]1ccc(-c2cc[n+](C)cc2)cc1 [Paraquat]
Settings	fitness
S. aureus DSM 20231 [1], first compound 0.0625 µg/mL, partner 1.25 µg/mL	0.512
S. aureus DSM 20231 [1], first compound 0.0625 µg/mL, partner 2.5 µg/mL	0.517
S. aureus DSM 20231 [1], first compound 0.0625 µg/mL, partner 5 µg/mL	0.488
S. aureus DSM 20231 [1], first compound 0.125 µg/mL, partner 1.25 µg/mL	0.433
S. aureus DSM 20231 [1], first compound 0.125 µg/mL, partner 2.5 µg/mL	0.498
S. aureus DSM 20231 [1], first compound 0.125 µg/mL, partner 5 µg/mL	0.431
S. aureus DSM 20231 [1], first compound 0.25 µg/mL, partner 2.5 µg/mL	0.0563
S. aureus DSM 20231 [1], first compound 0.25 µg/mL, partner 5 µg/mL	0.0722
S. aureus Newman [2], first compound 0.0625 µg/mL, partner 1.25 µg/mL	0.89
S. aureus Newman [2], first compound 0.0625 µg/mL, partner 2.5 µg/mL	0.87
S. aureus Newman [2], first compound 0.0625 µg/mL, partner 5 µg/mL	0.86
S. aureus Newman [2], first compound 0.125 µg/mL, partner 1.25 µg/mL	0.861
S. aureus Newman [2], first compound 0.125 µg/mL, partner 2.5 µg/mL	0.885
S. aureus Newman [2], first compound 0.125 µg/mL, partner 5 µg/mL	0.838
S. aureus Newman [2], first compound 0.25 µg/mL, partner 5 µg/mL	0.829
S. pneumoniae D39V [3], first compound 0.0008 µg/mL, partner 1.5 µg/mL	≥ 1
S. pneumoniae D39V [3], first compound 0.0008 µg/mL, partner 3 µg/mL	0.961
S. pneumoniae D39V [3], first compound 0.0008 µg/mL, partner 6 µg/mL	0.921
S. pneumoniae D39V [3], first compound 0.0015 µg/mL, partner 1.5 µg/mL	0.988
S. pneumoniae D39V [3], first compound 0.0015 µg/mL, partner 3 µg/mL	0.939
S. pneumoniae D39V [3], first compound 0.0015 µg/mL, partner 6 µg/mL	0.913
S. pneumoniae D39V [3], first compound 0.003 µg/mL, partner 1.5 µg/mL	0.96
S. pneumoniae D39V [3], first compound 0.003 µg/mL, partner 3 µg/mL	0.847
S. pneumoniae D39V [3], first compound 0.003 µg/mL, partner 6 µg/mL	0.864

fitness, one replicate
Settings	partner 1.25 µg/mL	partner 1.5 µg/mL	partner 2.5 µg/mL	partner 3 µg/mL	partner 5 µg/mL	partner 6 µg/mL
S. aureus DSM 20231 [1], first compound 0.5 µg/mL	0.0127	–	0.0289	–	0.0485	–
S. pneumoniae D39V [3], first compound 0.006 µg/mL	–	0.542	–	0.561	–	0.422

Settings	Bliss interaction score
B. subtilis 168	-0.061
S. aureus DSM 20231 [4]	0.0506
S. aureus Newman [5]	0.0578
S. pneumoniae D39V [6]	-0.0705

CC1(C)S[C@@H]2[C@H](NC(=O)[C@H](N)c3ccc(O)cc3)C(=O)N2[C@H]1C(=O)O [Amoxicillin] + Cc1cc(NS(=O)(=O)c2ccc(N)cc2)no1 [Sulfamethoxazol]
fitness
Settings	partner 1 µg/mL	partner 2 µg/mL	partner 4 µg/mL
S. aureus DSM 20231 [1], first compound 0.0625 µg/mL	0.445	0.506	0.522
S. aureus DSM 20231 [1], first compound 0.125 µg/mL	0.376	–	–
S. aureus DSM 20231 [1], first compound 0.25 µg/mL	0.0292	0.0368	0.035
S. aureus Newman [2], first compound 0.0625 µg/mL	0.878	0.88	0.883
S. aureus Newman [2], first compound 0.125 µg/mL	0.858	0.876	0.876
S. aureus Newman [2], first compound 0.25 µg/mL	0.81	0.847	0.844
S. pneumoniae D39V [3], first compound 0.0008 µg/mL	0.936	0.972	0.926
S. pneumoniae D39V [3], first compound 0.0015 µg/mL	0.882	0.928	0.878
S. pneumoniae D39V [3], first compound 0.003 µg/mL	0.87	0.883	0.875

fitness, one replicate
Settings	partner 1 µg/mL	partner 2 µg/mL	partner 4 µg/mL	partner 8 µg/mL
S. aureus DSM 20231 [1], first compound 0.5 µg/mL	0.015	0.0516	0.0038	–
S. aureus Newman [2], first compound 0.125 µg/mL	–	–	–	0.948
S. aureus Newman [2], first compound 0.25 µg/mL	–	–	–	0.938
S. aureus Newman [2], first compound 0.5 µg/mL	–	0.812	0.852	0.84
S. pneumoniae D39V [3], first compound 0.006 µg/mL	0.368	0.423	0.388	–

Settings	Bliss interaction score
B. subtilis 168	-0.0805
S. aureus DSM 20231 [4]	-0.0441
S. aureus Newman [5]	-0.0589
S. pneumoniae D39V [6]	-0.09
